Results on 2 compounds are retold here after paper PMC10077444, “Evaluation of In Vivo Biological Activity Profiles of Isoindole-1,3-dione Derivatives: Cytotoxicity, Toxicology, and Histopathology Studies” (ACS Omega, 2023).

Data set [1] is described as follows: Weight and survival of tumor-bearing nude mice during and after treatment. Type of data set: in vivo. As to conditions: for weight of nude mice: individual mice (1)-(5); for survival of tumor-bearing nude mice: five mice per group, observed for 60 days. As for the experimental part:
Male atypical nude mice, 6–8 weeks old, were used for in vivo xenograft tumor models. […] For the purpose of xenograft administration, nude mice were injected subcutaneously with 100 μL of 5 × 10^6 A549-Luc cell suspension. The presence of cancer after cell administration to nude mice was followed by imaging with an IVIS device. In order to monitor tumor formation and tumor volume detection, luciferin [Biovision Inc., USA; 12 mg/mL in phosphate-buffered saline (PBS)] was injected intraperitoneally followed by visualization with IVIS 5 min later. When tumor volume reaches about 2000 mm^3, cancerous nudes are divided into three groups: the control group, 3 group, and 4 group. Grouping was made as 3–5 animals in each group. The following procedures were prepared according to the groups, and then they were implemented. In addition, the weights of nude mice were regularly checked and recorded.
Male atypical nude mice aged 6–8 weeks are commonly used in in vivo xenograft tumor models. A549-luc lung cancer cells were injected into nude mice in all three groups, and tumor growth was induced with a xenograft model. For xenograft administration, 100 μL of 5 × 10^6 A549-luc cell suspension was injected subcutaneously into nude mice. After cell application to nude mice, it was determined whether there was cancer or not by imaging with the IVIS device. After the cancer groups were formed, the treatment phase was started. […] Each prepared sample was given to the animals by tail vein administration, three doses (as described in Section 2.3) per week, and the IVIS images taken at 5 min after luciferin (200 μL of 12 mg/mL stock administered subcutaneously) at certain time intervals were evaluated.

The test system of another data set is A549 cell lines. The experiment in a line: MTT proliferation assay, A549 cells. Type of data set: cell-based. The following applies: Homo sapiens, A549 (A549-Luc) cells. As for the experimental part: The A549 (human lung carcinoma) cell line was grown in a Dulbecco’s Modified Eagle Medium (DMEM) containing 10% fetal bovine serum (FBS) and 100 units/mL penicillin–100 μg/mL streptomycin and 2 mM L-glutamine for cytotoxicity experiments. Cells were maintained at 37 °C temperature conditions containing 5% CO2. When the cells covered 95–98% of the flask, they were passaged.
The 3-(4,5-dimethylthiazol-2-yl)-2,5-diphenyltetrazolium bromide (MTT) proliferation assay was performed to evaluate the cytotoxicity of the 3 and 4 compounds. Cells were seeded at a density of 5 × 10^4 cells/cm^2 and incubated at 37 °C in 95% air, 5% CO2 environments for 24 h. Substances 3 and 4 were first dissolved in DMSO, then dilutions were prepared by dispersing them in the DMEM cell growth medium. The dose intervals of substances 3 and 4 were prepared as 400, 200, 100, 50, and 25 μM. The dose intervals of substances 3 and 4 were placed on a 24-well cell culture plate and then incubated for 24 h. After incubation, the medium was removed and replaced with the MTT-containing medium. Plates were incubated for an additional 4 h at 37 °C. MTT medium was removed, and 100 μL of DMSO was added to dissolve the formazan crystals. The absorbance was determined using a plate reader at a wavelength of 540 nm. IC50 values for 24, 48, and 72 h were calculated using GraphPad Prism5 software (GraphPad, San Diego, CA).
Our group recently determined that isoindole-1,3-dione derivatives are potential tyrosine kinase enzyme inhibitors and have antiproliferative effects against some cell lines according to MTT test results. It has been confirmed that the antiproliferative effects vary according to the nitrogen (N) atom and the groups attached to the ring. In addition, some compounds are known to exert cytotoxic effects against more than one cell line. […] Benzyl derivatives of isoindole-1,3-dione 3 and 4 were synthesized according to the method used in our previous work.[9] First, the cytotoxic effects of both compounds against A549-Luc cells were examined. IC50 values of those drugs were calculated using the MTT activity assay. Cell viability of A549-Luc cells using two compounds was followed for 24, 48, and 72 h of incubation time. According to the results of these experiments, the optimum incubation period was determined as 48 h.

A further data set deals with CD1 mice. The experiment in a line: Acute toxicity study. The data set is classed as in vivo. As to conditions: 200 μM, 100 μL intravenously once, 2 females and 2 males, 14 days.
Data set [2] in a line: 28 day subacute toxicity study, blood biochemical parameters. As to conditions: for ALB / ALT / AST / TBIL: 200 μM group, 100 μL i.v. 3 times a week for 4 weeks, blood.
[3] abbreviates: 3 days, 200 μM, 20 μL tail vein, three doses a week, in g (unit assumed).
Where [4] appears, read: 7 days, 200 μM, 20 μL tail vein, three doses a week, in g (unit assumed).
Setting [5] is: 10 days, 200 μM, 20 μL tail vein, three doses a week, in g (unit assumed).
[6] abbreviates: 15 days, 200 μM, 20 μL tail vein, three doses a week, in g (unit assumed).
Where [7] appears, read: 200 μM, 20 μL tail vein, three doses a week.
Where [8] appears, read: initially, 200 μM in DMSO, 20 μL tail vein, three doses a week, in g (unit assumed).

Values joined by “and” are separate entries in the source; they are usually repeats but may differ in a detail not shown here. Identical values can stand only once. “Also recorded” adds a separate entry of the source.

A word on the IC50: it is the concentration needed to halve the response being measured. Low values mean inhibition by little substance, high ones a need for much substance.

As for `CC(=O)O[C@@H]1[C@@H]2C(=O)N(Cc3ccccc3)C(=O)[C@@H]2C=C[C@H]1Cl` [compound 4], the “weight of nude mice” value in data set [1] (setting [3]) is 29.17 and 26.62 and 29.35 and 24.80 and 28.90; in data set [1] (setting [4]) it was 33.10 and 30.76 and 32.46 and 25.32 and 30.89; in data set [1] (setting [5]), 31.71 and 30.85 and 31.40 and 27.13 and 31.24; in data set [1] (setting [6]), 35.20 and 32.46 and 31.25 and 28.34 and 32.30; in data set [1] (20 days, Ex = dead), 37.08 and Ex; in data set [1] (30 days, Ex = dead), 35.54 and Ex. In addition, the “weight of nude mice” value was 34.30 and Ex in data set [1] (40 days, treatment discontinued on day 30, Ex = dead); 30.41 and Ex in data set [1] (50 days, treatment discontinued on day 30, Ex = dead); 32.95 and Ex in data set [1] (60 days, treatment discontinued on day 30, Ex = dead); 24.57 and 22.94 and 24.50 and 23.01 and 24.01 in data set [1] (setting [8]). Also, the “survival of tumor-bearing nude mice” value in data set [1] (setting [7]) was “became Ex after 15 days; also recorded: found Ex in their cages after the 3rd dose; also recorded: four nude mice were dead; also recorded: showed Ex after the third dose”. Besides, the IC50 was 349 µM in the data set on A549 cell lines (24 h), 116 µM with A549 cell lines (48 h) and 83.6 µM with A549 cell lines (72 h). Besides, in the data set on CD1 mice, the “abnormalities in the behavior of the mice” value is “no abnormalities”. Moreover, in data set [2], the ALB was 2.63 ± 0.07. In data set [2], this compound had an ALT of 57.5 ± 0.71. In data set [2], this compound gave an AST of 94.5 ± 3.54. Moreover, in data set [2], the TBIL amounted to 0.03 ± 0.03.
Regarding `CC(=O)O[C@H]1C=C[C@H](OC(C)=O)[C@H]2C(=O)N(Cc3ccccc3)C(=O)[C@H]21` [compound 3], the “weight of nude mice” value is 26.25 and 24.90 and 23.54 and 27.20 in data set [1] (setting [3]); 28.50 and 25.42 and 24.87 and 29.26 and 30.77 in data set [1] (setting [4]); 28.52 and 25.98 and 25.89 and 30.26 and 32.07 in data set [1] (setting [5]); 31.02 and 28.50 and 26.43 and 32.30 and 33.71 in data set [1] (setting [6]); 32.60 and 30.60 and 28.70 and 33.78 and 36.05 in data set [1] (20 days, Ex = dead, in g (unit assumed)); 30.90 and 29.40 and 32.96 and 34.86 in data set [1] (30 days, Ex = dead, in g (unit assumed)). The “weight of nude mice” value is 30.81 and 31.30 and 30.31 and 32.30 and 34.31 in data set [1] (40 days, treatment discontinued on day 30, Ex = dead, in g (unit assumed)); 30.91 and 33.40 and 31.25 and 33.12 and 34.65 in data set [1] (50 days, treatment discontinued on day 30, Ex = dead, in g (unit assumed)); 32.39 and 34.65 and 32.60 and 33.37 and 35.95 in data set [1] (60 days, treatment discontinued on day 30, Ex = dead, in g (unit assumed)); 23.58 and 24.10 and 22.14 and 22.18 and 24.24 in data set [1] (setting [8]). The “survival of tumor-bearing nude mice” value in data set [1] (setting [7]) is “did not die; also recorded: survived for 60 days”. The IC50 is 266 µM with A549 cell lines (24 h), 114 µM with A549 cell lines (48 h) and 68.8 µM with A549 cell lines (72 h). For the same compound, the “abnormalities in the behavior of the mice” value with CD1 mice is “no abnormalities”. The ALB in data set [2] turned out to be 2.34 ± 0.05. In data set [2], this compound showed an ALT of 60.5 ± 6.36. Further, in data set [2], the AST was determined as 114 ± 9.90. The compound also registered a TBIL in data set [2] of 0.02 ± 0.01. Moreover, the “increase of AST level compared with the control group” value in data set [2] (1st dose (200 μM) groups) was “more than the increase related to 4”.
